Assay results from patent US8889878B2, “Haloalky-substituted amides as insecticides and acaricides” (Bayer CropScience AG, priority 2009, dated 2014).

Legend:
[1] = logP by HPLC on reverse-phase column (EEC Directive 79/831 Annex V.A8); assay type: physicochemical
Procedure: The logP values reported in the above Tables and Preparation Examples were determined according to EEC Directive 79/831 Annex V.A8 by HPLC (High Performance Liquid Chromatography) on a reverse-phase column (C18). Temperature 43° C.

[2] = test system: armyworm (Spodoptera frugiperda); test: Spodoptera frugiperda test (SPODFR spray treatment), Example 15; assay type: in vivo; details: maize leaf discs sprayed, after 7 days
Procedure: Spodoptera frugiperda Test (SPODFR Spray Treatment)
• Solvent: 78.0 parts by weight of acetone • 1.5 parts by weight of dimethylformamide • Emulsifier: 0.5 part by weight of alkylaryl polyglycol ether
To prepare an appropriate active ingredient formulation, 1 part by weight of active ingredient is mixed with the stated amounts of solvent and emulsifier, and the concentrate is diluted with emulsifier-containing water to the desired concentration. Leaf discs from maize (Zea mays) are sprayed with an active ingredient formulation of the desired concentration and, after drying, populated with caterpillars of the armyworm (Spodoptera frugiperda).
After 7 days, the efficacy in % is determined. 100% means that all caterpillars were killed; 0% means that no caterpillars were killed.

[3] = HPLC, C18 reverse phase, 43° C., acidic range pH 2.7, calibration with alkan-2-ones
[4] = HPLC-MS, HPLC on reverse-phase column

Row | SMILES | logP ([1]; HPLC-MS) | efficacy in % ([2]; application rate 100 g/ha) [%] | logP [1, 3] | efficacy in % ([2]; application rate 500 g/ha) [%] | logP [1, 4]
1 | O=C(/C=C/c1ccc(-n2cnc(Cl)n2)c(C(F)(F)F)c1)NC(c1cccc(C(F)(F)F)c1)C(F)(F)F (racemic) [Ia-208] | HPLC-MS: logP = 4.02; mass | 100 | – | – | –
2 | O=C(/C=C/c1ccc(-n2cncn2)c(Cl)c1)NC(c1ccc(F)c(Cl)c1)C(F)(F)F (racemic) [Ia-209] | HPLC-MS: logP = 3.15; mass | 83 | – | – | –
3 | O=C(/C=C/c1ccc(C(=O)Nc2ccc(F)cn2)c(C(F)(F)F)c1)NC(c1cccc(C(F)(F)F)c1)C(F)(F)F (racemic) [Ia-210] | HPLC-MS: logP = 3.93; mass | 100 | – | – | –
4 | N#Cc1ccc(NC(=O)c2ccc(/C=C/C(=O)NC(c3cccc(C(F)(F)F)c3)C(F)(F)F)cc2C(F)(F)F)nc1 (racemic) [Ia-211] | HPLC-MS: logP = 3.82; mass | 100 | – | – | –
5 | O=C(/C=C/c1ccc(C(=O)Nc2ccc(F)cn2)c(Br)c1)NC(c1cccc(C(F)(F)F)c1)C(F)(F)F (racemic) [Ia-212] | HPLC-MS: logP = 3.87; mass | 100 | – | – | –
6 | N#Cc1ccc(NC(=O)c2ccc(/C=C/C(=O)NC(c3cccc(C(F)(F)F)c3)C(F)(F)F)cc2Br)nc1 (racemic) [Ia-214] | HPLC-MS: logP = 3.75; mass | 100 | – | – | –
7 | CCOCn1c(C(=O)NC(c2cccc(C(F)(F)F)c2)C(F)(F)F)cc2cc(C(=O)NC3CC3)c(Cl)cc21 (racemic) [Ic-27] | – | 100 | HPLC-MS: logP = 3.81; mass | – | –
8 | C=CCn1c(C(=O)NC(c2cccc(C(F)(F)F)c2)C(F)(F)F)cc2cc(C(=O)NC3CC3)c(Cl)cc21 (racemic) [Ic-29] | – | 100 | HPLC-MS: logP = 3.86; mass | – | –
9 | O=C(/C=C/c1ccc(C(=O)NCc2ccccn2)cc1)NC(c1cccc(C(F)(F)F)c1)C(F)(F)F (centres unmarked) [Ia-7] | HPLC-MS: logP = 2.45; mass | – | – | 83 | –
10 | N#Cc1cc(/C=C/C(=O)NC(c2cc(Cl)ccc2Cl)C(F)(F)F)ccc1-n1cncn1 (centres unmarked) [Ia-15] | HPLC-MS: logP = 3.19; mass | – | – | 83 | –
11 | CC(NC(=O)c1ccc(/C=C/C(=O)NC(c2cccc([N+](=O)[O-])c2)C(F)(F)F)cc1C(F)(F)F)C(F)(F)F (centres unmarked) [Ia-28] | HPLC-MS: logP = 3.83; mass | – | – | 83 | –
12 | O=C(/C=C/c1ccc(C(=O)Nc2ncccn2)c(C(F)(F)F)c1)NC(c1cccc(C(F)(F)F)c1)C(F)(F)F (centres unmarked) [Ia-119] | HPLC-MS: logP = 3.11; mass | 100 | – | – | –
13 | O=C(/C=C/c1ccc(C(=O)Nc2ncc(Cl)cn2)c(C(F)(F)F)c1)NC(c1cccc(C(F)(F)F)c1)C(F)(F)F (centres unmarked) [Ia-137] | HPLC-MS: logP = 3.62; mass | 100 | – | – | –
14 | O=C(/C=C/c1ccc(C(=O)Nc2cc(Cl)ccn2)c(Cl)c1)NC(c1cccc(C(F)(F)F)c1)C(F)(F)F (centres unmarked) [Ia-165] | HPLC-MS: logP = 4,23; mass | 100 | – | – | –
15 | CC(C#N)(NC(=O)c1ccc(/C=C/C(=O)NC(c2cccc(C(F)(F)F)c2)C(F)(F)F)cc1C(F)(F)F)C1CC1 (centres unmarked) [Ia-172] | HPLC-MS: logP = 3.74; mass | 100 | – | – | –
16 | CC(NC(=O)c1ccc(/C=C/C(=O)NC(c2cccc(C(F)(F)F)c2)C(F)(F)F)cc1Br)C(F)(F)F (centres unmarked) [Ia-176] | HPLC-MS: logP = 3.78; mass | 100 | – | – | –
17 | C#CC(C)NC(=O)c1ccc(/C=C/C(=O)NC(c2cccc(C(F)(F)F)c2)C(F)(F)F)cc1Br (centres unmarked) [Ia-178] | HPLC-MS: logP = 3.44; mass | 100 | – | – | –
18 | O=C(/C=C/c1ccc(C(=O)Nc2ncccc2Cl)c(Cl)c1)NC(c1cccc(C(F)(F)F)c1)C(F)(F)F (centres unmarked) [Ia-183] | HPLC-MS: logP = 3.44; mass | 83 | – | – | –
19 | O=C(/C=C/c1ccc(C(=O)Nc2cccnn2)c(C(F)(F)F)c1)NC(c1cccc(C(F)(F)F)c1)C(F)(F)F (centres unmarked) [Ia-225] | HPLC-MS: logP = 3.27; mass | 100 | – | – | –
20 | O=C(/C=C/c1ccc(C(=O)Nc2cnc(Br)cn2)c(C(F)(F)F)c1)NC(c1cccc(C(F)(F)F)c1)C(F)(F)F (centres unmarked) [Ia-226] | HPLC-MS: logP = 4.15; mass | 100 | – | – | –

Row | SMILES | logP ([1]; HPLC-MS) | efficacy in % ([2]; application rate 100 g/ha) [%] | logP [1, 3] | efficacy in % ([2]; application rate 500 g/ha) [%] | logP [1, 4]
21 | O=C(/C=C/c1ccc(C(=O)NC2CC2)c(Cl)c1)NC(c1cccc(Cl)c1)C(F)(F)F (centres unmarked) [Ia-235] | HPLC-MS: logP = 3.03; mass | – | – | 83 | –
22 | CC(=O)NCc1ccc(/C=C/C(=O)NC(c2cccc(C(F)(F)F)c2)C(F)(F)F)cc1C(F)(F)F (centres unmarked) [Ia-247] | HPLC-MS: logP = 3.24; mass | 100 | – | – | –
23 | CC(=O)NCc1ccc(/C=C/C(=O)NC(c2cccc(C(F)(F)F)c2)C(F)(F)F)cc1Cl (centres unmarked) [Ia-248] | HPLC-MS: logP = 3.06; mass | 100 | – | – | –
24 | CC(C)C(=O)N(Cc1ccccn1)Cc1ccc(/C=C/C(=O)NC(c2cccc(C(F)(F)F)c2)C(F)(F)F)cc1F (centres unmarked) [Ia-253] | HPLC-MS: logP = 3.37; mass | 100 | – | – | –
25 | CCN(C(=O)c1ccc(/C=C/C(=O)NC(c2cccc(C(F)(F)F)c2)C(F)(F)F)cc1C(F)(F)F)C1CC1 (centres unmarked) [Ia-257] | HPLC-MS: logP = 3.89; mass | 100 | – | – | –
26 | O=C(/C=C/c1ccc(C(=O)N(Cc2cccnc2)C2CC2)c(C(F)(F)F)c1)NC(c1cccc(C(F)(F)F)c1)C(F)(F)F (centres unmarked) [Ia-258] | HPLC-MS: logP = 2.8; mass | 100 | – | – | –
27 | Cc1ccnc(NC(=O)c2ccc(/C=C/C(=O)NC(c3cccc(C(F)(F)F)c3)C(F)(F)F)cc2C(F)(F)F)c1 (centres unmarked) [Ia-259] | HPLC-MS: logP = 3.61; mass | 100 | – | – | –
28 | N#Cc1ccnc(NC(=O)c2ccc(/C=C/C(=O)NC(c3cccc(C(F)(F)F)c3)C(F)(F)F)cc2C(F)(F)F)c1 (centres unmarked) [Ia-260] | – | 100 | – | – | HPLC-MS: logP = 3.61; mass
29 | O=C(/C=C/c1ccc(CNc2cc(Cl)ccn2)c(C(F)(F)F)c1)NC(c1cccc(C(F)(F)F)c1)C(F)(F)F (centres unmarked) [Ia-264] | – | 100 | – | – | HPLC-MS: logP = 4.28; mass
30 | O=C(/C=C/c1ccc(CNC(=O)C2CCC2)c(C(F)(F)F)c1)NC(c1cccc(C(F)(F)F)c1)C(F)(F)F (centres unmarked) [Ia-267] | – | 100 | – | – | HPLC-MS: logP = 3.9; mass
31 | O=C(/C=C/c1ccc(CNS(=O)(=O)C2CC2)c(C(F)(F)F)c1)NC(c1cccc(C(F)(F)F)c1)C(F)(F)F (centres unmarked) [Ia-271] | – | 100 | – | – | HPLC-MS: logP = 3.74; mass
32 | CCC(=O)NCc1ccc(/C=C/C(=O)NC(c2ccc(F)c(C(F)(F)F)c2)C(F)(F)F)cc1C(F)(F)F (centres unmarked) [Ia-272] | – | 100 | – | – | HPLC-MS: logP = 3.61; mass
33 | CCC(=O)NC(C)c1ccc(/C=C/C(=O)NC(c2cccc(C(F)(F)F)c2)C(F)(F)F)cc1F (centres unmarked) [Ia-273] | – | 100 | – | – | HPLC-MS: logP = 3.3; mass
34 | CCC(=O)NC(C)c1ccc(/C=C/C(=O)NC(c2ccc(F)c(Cl)c2)C(F)(F)F)cc1F (centres unmarked) [Ia-274] | – | 100 | – | – | HPLC-MS: logP = 3.23; mass
35 | CCC(=O)NC(C)c1ccc(/C=C/C(=O)NC(c2ccc(F)c(C(F)(F)F)c2)C(F)(F)F)cc1F (centres unmarked) [Ia-275] | – | 100 | – | – | HPLC-MS: logP = 3.38; mass
36 | CN(C(=O)c1ccc(/C=C/C(=O)NC(c2ccc(F)c(C(F)(F)F)c2)C(F)(F)F)cc1C(F)(F)F)c1ccccn1 (centres unmarked) [Ia-281] | – | 100 | – | – | HPLC-MS: logP = 3.63; mass
37 | O=C(/C=C/c1ccc(C(=O)NC2CC2)c(C(F)(F)F)c1)NC(c1cccc(Br)c1)C(F)(F)F (centres unmarked) [Ia-284] | – | 100 | – | – | HPLC-MS: logP = 3.35; mass
38 | O=C(/C=C/c1ccc(C(=O)Nc2ccccn2)c(C(F)(F)F)c1)NC(c1cncc(C(F)(F)F)c1)C(F)(F)F (centres unmarked) [Ib-2] | – | – | HPLC-MS: logP = 3.02 mass (m/z): | 83 | –
39 | N#Cc1ccc2[nH]c(C(=O)NC(c3cccc(C(F)(F)F)c3)C(F)(F)F)cc2c1 (centres unmarked) [Ic-4] | – | – | HPLC-MS: logP = 3.48; mass | 83 | –
40 | O=C(/C=C/c1ccc2c(c1)CCC2NC(=O)CC1CC1)NC(c1cccc(C(F)(F)F)c1)C(F)(F)F (centres unmarked) [Ie-2] | – | 100 | HPLC-MS: logP = 3.54; mass | – | –
